Common to all, as to assay type: biochemical
Experiment [1] has as its target T1, TEC (Homo sapiens, UniProt P42680).
T1 sequence (P42680 1-631): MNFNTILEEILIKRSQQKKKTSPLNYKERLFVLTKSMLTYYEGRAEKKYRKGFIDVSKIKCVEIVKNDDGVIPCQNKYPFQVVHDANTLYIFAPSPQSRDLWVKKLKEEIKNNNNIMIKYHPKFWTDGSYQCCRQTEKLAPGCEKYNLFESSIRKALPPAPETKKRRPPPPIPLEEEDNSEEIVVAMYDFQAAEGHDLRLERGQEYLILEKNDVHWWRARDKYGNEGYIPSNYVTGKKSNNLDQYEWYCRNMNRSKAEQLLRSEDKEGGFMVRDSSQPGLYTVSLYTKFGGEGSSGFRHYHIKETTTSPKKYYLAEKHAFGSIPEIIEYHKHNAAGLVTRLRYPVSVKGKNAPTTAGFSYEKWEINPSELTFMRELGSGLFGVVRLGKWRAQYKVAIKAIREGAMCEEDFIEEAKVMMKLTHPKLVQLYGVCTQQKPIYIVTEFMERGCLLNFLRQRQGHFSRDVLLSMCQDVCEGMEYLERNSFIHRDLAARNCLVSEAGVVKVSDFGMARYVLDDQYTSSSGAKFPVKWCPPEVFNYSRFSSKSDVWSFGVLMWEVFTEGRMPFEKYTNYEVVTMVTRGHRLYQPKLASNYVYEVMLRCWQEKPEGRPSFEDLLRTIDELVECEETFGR
Briefly: Inhibition of a panel of kinases, in vitro HotSpot kinase assay: TEC. Conditions: E compounds, Table 17. The protocol: (§1) The degree of inhibition of a panel of kinases is determined using the in vitro HotSpot kinase assay (purified enzymes, ^33P-ATP, an appropriate substrate and 1 μM ATP).

In experiment [2] the target is T2, ITK (Homo sapiens, UniProt Q08881).
T2 sequence (Q08881 1-620): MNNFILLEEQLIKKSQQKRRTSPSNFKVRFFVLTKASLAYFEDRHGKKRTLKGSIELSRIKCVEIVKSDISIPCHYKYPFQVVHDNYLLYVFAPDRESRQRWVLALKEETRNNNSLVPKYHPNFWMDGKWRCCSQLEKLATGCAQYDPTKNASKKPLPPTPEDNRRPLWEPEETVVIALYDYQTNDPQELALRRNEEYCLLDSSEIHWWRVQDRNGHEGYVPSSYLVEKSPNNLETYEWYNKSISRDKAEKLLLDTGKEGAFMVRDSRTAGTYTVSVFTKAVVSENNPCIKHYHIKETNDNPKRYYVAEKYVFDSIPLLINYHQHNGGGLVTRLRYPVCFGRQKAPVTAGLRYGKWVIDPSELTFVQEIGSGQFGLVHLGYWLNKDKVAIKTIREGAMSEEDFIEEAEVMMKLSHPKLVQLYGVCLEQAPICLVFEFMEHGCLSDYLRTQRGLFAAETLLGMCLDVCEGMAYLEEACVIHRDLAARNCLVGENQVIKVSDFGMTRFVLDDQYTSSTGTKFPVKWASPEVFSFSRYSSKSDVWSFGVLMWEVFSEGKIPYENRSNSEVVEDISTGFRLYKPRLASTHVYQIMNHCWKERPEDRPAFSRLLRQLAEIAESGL
Briefly: Inhibition of a panel of kinases, in vitro HotSpot kinase assay: ITK. The conditions noted are these: E compounds, Table 17. The protocol: as §1

For experiment [3], the target named is T3, BTK-WT (Homo sapiens, UniProt Q06187).
T3 construct: purified from insect cells as a full-length construct containing an N-terminal 6X-His tag; His6 (N); made in house; host or cells: insect cells (baculovirus Sf21 in Method B)
T3 sequence (Q06187 whole entry): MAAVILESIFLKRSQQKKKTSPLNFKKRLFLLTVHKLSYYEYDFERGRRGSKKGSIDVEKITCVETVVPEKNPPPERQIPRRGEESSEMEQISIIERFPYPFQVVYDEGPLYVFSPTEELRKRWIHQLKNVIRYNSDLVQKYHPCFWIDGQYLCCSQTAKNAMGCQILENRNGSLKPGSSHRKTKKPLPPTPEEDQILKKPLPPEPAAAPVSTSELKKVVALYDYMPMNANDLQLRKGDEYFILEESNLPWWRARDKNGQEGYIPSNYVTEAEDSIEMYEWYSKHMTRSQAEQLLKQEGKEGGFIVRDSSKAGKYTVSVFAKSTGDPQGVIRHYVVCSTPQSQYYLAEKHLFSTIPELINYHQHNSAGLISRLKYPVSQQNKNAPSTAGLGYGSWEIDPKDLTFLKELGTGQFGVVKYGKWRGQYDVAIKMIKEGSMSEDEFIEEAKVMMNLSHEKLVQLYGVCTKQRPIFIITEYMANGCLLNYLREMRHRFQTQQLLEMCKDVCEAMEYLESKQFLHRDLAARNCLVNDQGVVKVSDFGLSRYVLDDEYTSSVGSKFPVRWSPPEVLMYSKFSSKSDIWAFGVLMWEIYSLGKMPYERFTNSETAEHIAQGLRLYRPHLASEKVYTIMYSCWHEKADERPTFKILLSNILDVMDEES
Put plainly: Btk in vitro inhibitory activity (one of Method A TR-FRET, Method B electrophoretic mobility shift, Method C radiometric filter binding). On the technique in general: In EMSA bound probe runs differently from free probe, usually more slowly.

Experiment [4] concerns the target T4, JAK3 (Homo sapiens, UniProt P52333).
T4 sequence (P52333 1-1124): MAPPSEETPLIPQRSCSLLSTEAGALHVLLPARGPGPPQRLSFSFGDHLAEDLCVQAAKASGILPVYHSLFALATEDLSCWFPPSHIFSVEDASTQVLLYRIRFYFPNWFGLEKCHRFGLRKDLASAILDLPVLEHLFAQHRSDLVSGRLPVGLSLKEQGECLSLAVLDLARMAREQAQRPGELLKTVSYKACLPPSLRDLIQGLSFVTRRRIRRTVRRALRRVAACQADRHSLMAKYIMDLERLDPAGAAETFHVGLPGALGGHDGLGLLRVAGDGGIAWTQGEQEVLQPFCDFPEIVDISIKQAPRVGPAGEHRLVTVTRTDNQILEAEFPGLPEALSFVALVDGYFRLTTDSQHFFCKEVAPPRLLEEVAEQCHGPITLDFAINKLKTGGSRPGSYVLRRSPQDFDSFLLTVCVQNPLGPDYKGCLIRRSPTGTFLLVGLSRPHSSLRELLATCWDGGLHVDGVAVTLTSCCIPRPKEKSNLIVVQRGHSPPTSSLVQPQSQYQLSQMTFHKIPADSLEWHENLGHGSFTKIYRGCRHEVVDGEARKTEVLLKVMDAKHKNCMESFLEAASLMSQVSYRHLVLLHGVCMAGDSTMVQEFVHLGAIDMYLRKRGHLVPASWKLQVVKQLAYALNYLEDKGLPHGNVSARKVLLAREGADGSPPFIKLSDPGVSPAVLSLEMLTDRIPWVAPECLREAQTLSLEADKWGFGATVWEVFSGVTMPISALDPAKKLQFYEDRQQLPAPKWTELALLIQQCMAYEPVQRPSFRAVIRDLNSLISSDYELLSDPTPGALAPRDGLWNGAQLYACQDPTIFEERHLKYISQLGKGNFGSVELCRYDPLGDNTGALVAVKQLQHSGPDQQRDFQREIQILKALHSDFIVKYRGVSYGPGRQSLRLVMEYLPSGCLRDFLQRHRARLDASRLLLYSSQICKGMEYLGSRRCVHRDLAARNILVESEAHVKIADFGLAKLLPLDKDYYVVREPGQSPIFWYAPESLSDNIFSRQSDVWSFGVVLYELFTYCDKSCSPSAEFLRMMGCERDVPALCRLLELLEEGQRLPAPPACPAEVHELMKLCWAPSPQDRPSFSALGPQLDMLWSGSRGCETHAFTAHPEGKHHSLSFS
Put plainly: Inhibition of a panel of kinases, in vitro HotSpot kinase assay: JAK3. Conditions: 1 μM ATP, read-out: JAK3 (IC50).

The target of experiment [5] is LCK (Homo sapiens, UniProt P06239). Briefly: Inhibition of a panel of kinases, in vitro HotSpot kinase assay: LCK. The conditions noted are these: 1 μM ATP, read-out: LCK (IC50).
Chain of LCK (P06239 whole entry): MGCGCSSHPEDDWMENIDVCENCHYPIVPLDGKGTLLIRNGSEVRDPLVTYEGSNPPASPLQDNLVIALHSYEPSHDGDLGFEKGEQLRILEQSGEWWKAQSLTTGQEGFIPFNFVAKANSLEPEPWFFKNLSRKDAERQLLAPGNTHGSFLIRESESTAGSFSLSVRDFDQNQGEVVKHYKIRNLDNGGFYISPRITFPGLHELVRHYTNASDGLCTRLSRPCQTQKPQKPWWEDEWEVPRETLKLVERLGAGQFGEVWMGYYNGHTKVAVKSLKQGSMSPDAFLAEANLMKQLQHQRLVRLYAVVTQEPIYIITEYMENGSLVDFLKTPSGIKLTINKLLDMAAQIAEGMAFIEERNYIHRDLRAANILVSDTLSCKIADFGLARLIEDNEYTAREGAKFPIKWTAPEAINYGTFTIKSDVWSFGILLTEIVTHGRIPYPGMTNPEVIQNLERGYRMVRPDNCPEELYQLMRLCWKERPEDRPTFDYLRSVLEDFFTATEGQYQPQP
[6] abbreviates: E compounds, Table 17, read-out: IC50 BTK-WT.

pIC50: −log10 of the molar value. Read-outs that look alike come from different tables or passages of the source.

Our source for the IC50 values is patent US20210070748A1, “INHIBITORS OF BRUTONS TYROSINE KINASE” (Pharmacyclics LLC, priority 2015, published 2021).

Broadly, the pIC50 is the IC50 on a negative log10 scale, so that one unit is a factor of ten. Consider `C=CC(=O)N1CCC[C@@H](Nc2nnc(C(N)=O)c(Nc3ccc(-n4cncn4)cc3)n2)C1` [Example E-69, (R)-5-(4-(1H-1,2,4-triazol-1-yl)phenylamino)-3-(1-acryloylpiperidin-3-ylamino)-1,2,4-triazine-6-carboxamide], for which the results for the pIC50 in experiment [1], in experiment [2] and in experiment [3] (setting [6]) were no less than 8.00, 7.00 to 8.00 and no less than 8.00, respectively.

Turning to `C=CC(=O)N1CCC[C@@H](Nc2nnc(C(N)=O)c(Nc3cccc(C(=O)N4CCCCC4)c3)n2)C1` [Example E-87, (R)-3-(1-acryloylpiperidin-3-ylamino)-5-(3-(piperidine-1-carbonyl)phenylamino)-1,2,4-triazine-6-carboxamide], the pIC50 was no less than 8.00 in experiment [1], 6.00 to 7.00 in experiment [2] and no less than 8.00 in experiment [3] (setting [6]).

Consider `C=CC(=O)N1CCC[C@@H](Nc2nnc(C(N)=O)c(Nc3ccc4ncsc4c3)n2)C1` [Example E-51, (R)-3-(1-acryloylpiperidin-3-ylamino)-5-(benzo[d]thiazol-6-ylamino)-1,2,4-triazine-6-carboxamide], for which the pIC50 in experiment [1], in experiment [2] and in experiment [3] (setting [6]) was no less than 8.00 throughout.

In the case of `C=CC(=O)N1CC[C@@H](N(C)c2cnc(C(N)=O)c(Nc3ccc(C(O)(C(F)(F)F)C(F)(F)F)cc3)n2)C1` [Example E-120, (R)-5-((1-acryloylpyrrolidin-3-yl)(methyl)amino)-3-(4-(1,1,1,3,3,3-hexafluoro-2-hydroxypropan-2-yl)phenylamino)pyrazine-2-carboxamide], the pIC50 in experiment [1], in experiment [2] and in experiment [3] (setting [6]) was no less than 8.00 each time.

`C=CC(=O)N1CCC[C@@H](Nc2nnc(C(N)=O)c(Nc3cccc(-c4ncco4)c3)n2)C1` [Example E-65, (R)-3-(1-acryloylpiperidin-3-ylamino)-5-(3-(oxazol-2-yl)phenylamino)-1,2,4-triazine-6-carboxamide]: the pIC50 was no less than 8.00 in experiment [1], 7.00 to 8.00 in experiment [2] and no less than 8.00 in experiment [3] (setting [6]).

For `C=CC(=O)NC[C@H]1CCCN1c1nnc(C(N)=O)c(Nc2ccc(C(C)C)cc2)n1` [Example E-90, (R)-3-(2-(acrylamido-methyl)pyrrolidin-1-yl)-5-(4-isopropylphenyl-amino)-1,2,4-triazine-6-carboxamide], the pIC50 in experiment [1] was no less than 8.00; in experiment [2] it was 7.00 to 8.00; in experiment [3] (setting [6]) it was no less than 8.00.

Consider `C=CC(=O)N1CC[C@@H](N(C)c2cnc(C(N)=O)c(Nc3cccc(-n4nccn4)c3)n2)C1` [Example E-113, (R)-3-(3-(2H-1,2,3-triazol-2-yl)phenylamino)-5-((1-acryloylpyrrolidin-3-yl)(methyl)amino) pyrazine-2-carboxamide], for which the pIC50 in experiment [1] was no less than 8.00; in experiment [2], 7.00 to 8.00; in experiment [3] (setting [6]) it was no less than 8.00.

`C=CC(=O)N1CCC[C@@H](Nc2nnc(C(N)=O)c(Nc3ccc(Cl)cc3)n2)C1` [Example E-74, (R)-3-(1-acryloylpiperidin-3-ylamino)-5-(4-chlorophenylamino)-1,2,4-triazine-6-carboxamide]: the pIC50 in experiment [1] was no less than 8.00; in experiment [2], 7.00 to 8.00; in experiment [3] (setting [6]), no less than 8.00.

With `C=CC(=O)NC[C@H]1CCCCN1c1nnc(C(N)=O)c(Nc2ccc(C(C)C)cc2)n1` [Example E-88, (R)-3-(2-(acrylamido-methyl)piperidin-1-yl)-5-(4-isopropyl-phenylamino)-1,2,4-triazine-6-carboxamide], the negative logarithm of the IC50 (pIC50) was 7.00 to 8.00 in experiment [1], 6.00 to 7.00 in experiment [2] and no less than 8.00 in experiment [3] (setting [6]).

For `C=CC(=O)N1CCC[C@@H](Nc2nnc(C(N)=O)c(Nc3ccc(C(C)(C)C#N)cc3)n2)C1` [Example E-49, (R)-3-(1-acryloylpiperidin-3-ylamino)-5-(4-(2-cyanopropan-2-yl)phenylamino)-1,2,4-triazine-6-carboxamide], the negative logarithm of the IC50 (pIC50) in experiment [1], in experiment [2] and in experiment [3] (setting [6]) was no less than 8.00 throughout.

On to `C=CC(=O)N1CC[C@@H](N(C)c2nnc(C(N)=O)c(Nc3ccc(C(O)(C(F)(F)F)C(F)(F)F)cc3)n2)C1` [Example E-16, (R)-3-((1-acryloylpyrrolidin-3-yl)(methyl)amino)-5-(4-(1,1,1,3,3,3-hexafluoro-2-hydroxypropan-2-yl)phenylamino)-1,2,4-triazine-6-carboxamide], for which the pIC50 in experiment [1], in experiment [2] and in experiment [3] (setting [6]) was no less than 8.00 throughout.

Take `C=CC(=O)N1CCC[C@@H](Nc2nnc(C(N)=O)c(Nc3ccc(CN(C(=O)OCc4ccccc4)[C@@H](C)C(C)(C)C)cc3)n2)C1` [Example E-56, benzyl 4-(3-((R)-1-acryloylpiperidin-3-ylamino)-6-carbamoyl-1,2,4-triazin-5-ylamino)benzyl((S)-3,3-dimethylbutan-2-yl)carbamate]: the pIC50 was no less than 8.00 in experiment [1], 7.00 to 8.00 in experiment [2] and no less than 8.00 in experiment [3] (setting [6]).

As for `Cc1cc(Nc2nc(N3CCC[C@@H](NC(=O)Nc4ncc(C)s4)C3)cnc2C(N)=O)sn1` [Example A-12], the pIC50 in experiment [4] (Table 10, Formula A-I) was 5.00 to 6.00; in experiment [5] (Table 10, Formula A-I), 5.00 to 6.00; in experiment [3] (Table 10, Formula A-I, read-out: BTK-WT (IC50)), 6.00 to 7.00.

With `C=CC(=O)N1CC[C@@H](Nc2nnc(C(N)=O)c(Nc3cccc(C(=O)Nc4ccc(C(C)C)c(C)c4)c3)n2)C1` [Example C-30, (R)-3-(1-acryloylpyrrolidin-3-ylamino)-5-(3-(4-isopropyl-3-methylphenyl-carbamoyl)phenyl-amino)-1,2,4-triazine-6-carboxamide], the pIC50 in experiment [4] (Table 12, Formula C-I) is 6.00 to 7.00; in experiment [5] (Table 12, Formula C-I), less than 5.00; in experiment [3] (Table 12, Formula C-I, read-out: BTK-WT (IC50)) it was no less than 7.00.
